Experimental data reported in patent US20070282007A1, “TREATMENT OF PAIN DISORDERS WITH trans 4-(3,4-DICHLOROPHENYL)-1,2,3,4-TETRAHYDRO-1-NAPHTHALENAMINE AND ITS FORMAMIDE” (SEPRACOR INC., priority 2006, published 2007).
Where two headings read alike, the source gives them in different places.

Legend:
M5 = target: T1, M5 (Homo sapiens, UniProt P08912); assay: In vitro radioligand binding assay, M5
T1 sequence (P08912 1-532): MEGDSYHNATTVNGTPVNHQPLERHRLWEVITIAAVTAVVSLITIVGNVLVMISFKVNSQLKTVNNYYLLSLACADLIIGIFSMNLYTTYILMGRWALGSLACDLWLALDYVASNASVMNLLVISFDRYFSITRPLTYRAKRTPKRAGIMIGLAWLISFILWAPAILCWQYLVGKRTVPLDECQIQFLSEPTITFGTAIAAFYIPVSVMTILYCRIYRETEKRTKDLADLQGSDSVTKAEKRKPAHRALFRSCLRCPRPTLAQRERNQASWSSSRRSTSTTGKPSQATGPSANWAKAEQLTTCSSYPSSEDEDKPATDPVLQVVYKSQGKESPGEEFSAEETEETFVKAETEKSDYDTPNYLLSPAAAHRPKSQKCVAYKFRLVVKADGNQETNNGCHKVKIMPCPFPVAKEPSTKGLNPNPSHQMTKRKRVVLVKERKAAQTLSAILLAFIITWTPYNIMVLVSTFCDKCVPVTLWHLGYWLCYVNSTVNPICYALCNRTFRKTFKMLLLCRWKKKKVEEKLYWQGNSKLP

5-HT1B = 5-HT1B (Homo sapiens, UniProt P28222); assay: In vitro radioligand binding assay, 5-HT1B
[1] = target: Ca^2+ Channel Verapamil Site; assay: In vitro radioligand binding assay, Ca2+ channel verapamil site
Na^+ Channel Site 2 = assay: In vitro radioligand binding assay, Na+ channel site 2
[2] = target: T2, Norepinephrine (NE) uptake (Rattus norvegicus, UniProt Q63380); assay: Functional uptake of radiolabeled NE into synaptosomes from rat hypothalamus; type: biochemical
T2 construct: from tissue; host or cells: synaptosomes from rat hypothalamus
Description: The 5-HT and NE assays were performed essentially as outlined in Perovic S. & Müller W. E. G., Arzneim.-Forsch.

B2 = B2 (Homo sapiens, UniProt P30411); assay: In vitro radioligand binding assay, B2
5-HT1A = target: T3, 5-HT1A (Homo sapiens, UniProt P08908); assay: In vitro radioligand binding assay, 5-HT1A
T3 sequence (P08908 1-422): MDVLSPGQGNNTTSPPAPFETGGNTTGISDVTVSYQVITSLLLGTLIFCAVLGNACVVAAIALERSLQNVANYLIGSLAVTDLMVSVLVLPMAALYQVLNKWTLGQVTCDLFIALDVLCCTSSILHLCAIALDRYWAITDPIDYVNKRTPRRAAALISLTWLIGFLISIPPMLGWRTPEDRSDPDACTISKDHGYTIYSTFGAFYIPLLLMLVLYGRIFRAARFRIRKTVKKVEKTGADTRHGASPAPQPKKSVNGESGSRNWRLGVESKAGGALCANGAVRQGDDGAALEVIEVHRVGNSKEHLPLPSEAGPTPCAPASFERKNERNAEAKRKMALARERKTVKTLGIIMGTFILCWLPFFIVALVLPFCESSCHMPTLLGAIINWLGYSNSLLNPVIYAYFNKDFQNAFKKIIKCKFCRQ

rats [3] = assay: Formalin paw test in the rat (late phase), flinches counted; type: in vivo
Description: Rats were given an intraplantar injection of 5% formalin (50 μl) into the posterior left paw. […] The number of flinches was counted for 15 minutes, beginning 20 minutes after injection of formalin. Eight rats were studied per group. The test was performed blind. […] Data were analyzed by comparing treated groups with vehicle control using unpaired Mann-Whitney U tests.

rats [4] = assay: Formalin test, second test with Automated Nociception Analyzer; type: in vivo, rat; settings: automated detection; for Number of Flinches, Acute Phase (Mean ± SEM): 0-10 minutes after formalin; for Number of Flinches, Late Phase (Mean ± SEM): 10-60 minutes after formalin
Description: In a second test, flinching behaviors were measured for 90 minutes after formalin injection using an automated detection system. […] This device used a magnetic detection system to measure paw movements, called “flinches”. Small metal bands were attached to the left hind paw of rats just before placement into individual circular test chambers 30 minutes prior to formalin injection. […] In addition to duloxetine, morphine (6 mg/kg, subcutaneously) was used as a comparator substance. Animals were treated with morphine 30 minutes prior to the formalin injection. To initiate the experiment, the rats were injected with formalin subcutaneously on the dorsal surface of the left hind paw and placed in the test chambers. The instrument subsequently recorded rapid foot movements counted in one minute epochs.

M3 receptor = target: T4, M3 receptor (Cavia porcellus, UniProt H0W1Z3); assay: Carbachol-induced contraction of the isolated Guinea pig ileum; settings: reference antagonist
T4 construct: from tissue; host or cells: isolated guinea pig ileum

[5] = target: T5, recombinant human Norepinephrine (NE) transporter (Homo sapiens, UniProt P23975); assay: Functional uptake of NE into cells expressing recombinant human transporters; type: cell-based; settings: read-out: IC50 inhibition of functional uptake in human transporters, Norepinephrine (NE)
T5 construct: expressed in transfected cells

[6] = target: T6, recombinant human Dopamine (DA) transporter (Homo sapiens, UniProt Q01959); assay: Functional uptake of DA into cells expressing recombinant human transporters; type: cell-based; settings: read-out: IC50 inhibition of functional uptake in human transporters, Dopamine (DA)
T6 construct: expressed in transfected cells

Dopamine (DA) uptake = Dopamine (DA) uptake (Rattus norvegicus, UniProt P23977); assay: biochemical
Rat SNL Model [7] = assay: SNL model of neuropathic pain, mechanical allodynia testing; type: in vivo
Description: (§1) The animals were anesthetized with isoflurane, the left L5 transverse process was removed, and the L5 and L6 spinal nerves were tightly ligated with 6-0 silk suture. The wound was then closed with internal sutures and external staples. Wound clips were removed 10-11 days following surgery.
Animals were placed on a perforated metallic platform and allowed to acclimate to their surroundings for a minimum of 30 minutes before testing. The mean and standard error of the mean (SEM) were determined for each animal in each treatment group. Since this stimulus is normally not considered painful, significant injury-induced increases in responsiveness in this test are interpreted as a measure of mechanical allodynia. Mechanical allodynia was evaluated 14 days post-surgery.
(§2) Ten rats were studied per group and the tests were performed blind. (1R,4S)-4-(3,4-dichlorophenyl)-1,2,3,4-tetrahydro-1-naphthalenamine (P) was evaluated at 3 doses (5, 10 and 15 mg/kg), administered orally and compared with a vehicle control group. Gabapentin (100 mg/kg) and duloxetine (30 mg/kg) administered orally under the same experimental conditions, were used as comparator substances. Mechanical allodynia and hyperalgesia testing were conducted at baseline and 1, 2 and 4 hours after test article administration.

Rat SNL Model [8] = assay: SNL model of neuropathic pain, mechanical hyperalgesia testing; type: in vivo
Description: as §1
Mechanical hyperalgesia testing: Baseline, post-injury and post-treatment values for […] mechanical sensitivity were evaluated using a Paw Pressure Analgesymeter (7200, Ugo Basile, Comerio, Italy) which generates a linearly increasing mechanical force. The mechanical nociceptive stimulus was applied to the plantar surface of the hind paws by a dome-shaped plastic tip placed between the 3rd and 4th metatarsus. […] Mechanical thresholds were defined as the force in grams at the first pain behavior, which includes paw withdrawal, struggle and/or vocalization. Paw pressure test was performed on each hind paw for each animal. The mean and standard error of the mean (SEM) were determined for each paw, in each treatment group. Mechanical hyperalgesia was evaluated 24 days post-surgery.
as §2

H2 = H2 (Homo sapiens, UniProt P25021); assay: In vitro radioligand binding assay, H2
[9] = 128 mg/kg p.o. 60 min before the test
[10] = 30 mg/kg p.o. 60 min before the test

T2 sequence (Q63380 1-617): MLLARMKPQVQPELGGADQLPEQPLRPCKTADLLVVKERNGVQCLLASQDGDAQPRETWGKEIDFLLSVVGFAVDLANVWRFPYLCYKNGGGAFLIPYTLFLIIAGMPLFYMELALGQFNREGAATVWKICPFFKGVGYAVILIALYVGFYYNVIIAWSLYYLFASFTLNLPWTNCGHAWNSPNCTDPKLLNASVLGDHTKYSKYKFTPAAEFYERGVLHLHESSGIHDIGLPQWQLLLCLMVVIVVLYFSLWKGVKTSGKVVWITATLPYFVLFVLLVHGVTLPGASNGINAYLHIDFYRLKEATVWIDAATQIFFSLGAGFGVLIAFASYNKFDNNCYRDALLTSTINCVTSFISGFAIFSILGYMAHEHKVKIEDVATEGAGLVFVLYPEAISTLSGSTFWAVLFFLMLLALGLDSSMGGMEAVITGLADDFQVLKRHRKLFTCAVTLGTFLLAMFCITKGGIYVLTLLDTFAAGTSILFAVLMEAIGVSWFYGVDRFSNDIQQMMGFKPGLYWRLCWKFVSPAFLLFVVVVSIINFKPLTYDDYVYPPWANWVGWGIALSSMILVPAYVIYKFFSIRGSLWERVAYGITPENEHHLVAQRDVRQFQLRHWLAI
Dopamine (DA) uptake, sequence (P23977 whole entry): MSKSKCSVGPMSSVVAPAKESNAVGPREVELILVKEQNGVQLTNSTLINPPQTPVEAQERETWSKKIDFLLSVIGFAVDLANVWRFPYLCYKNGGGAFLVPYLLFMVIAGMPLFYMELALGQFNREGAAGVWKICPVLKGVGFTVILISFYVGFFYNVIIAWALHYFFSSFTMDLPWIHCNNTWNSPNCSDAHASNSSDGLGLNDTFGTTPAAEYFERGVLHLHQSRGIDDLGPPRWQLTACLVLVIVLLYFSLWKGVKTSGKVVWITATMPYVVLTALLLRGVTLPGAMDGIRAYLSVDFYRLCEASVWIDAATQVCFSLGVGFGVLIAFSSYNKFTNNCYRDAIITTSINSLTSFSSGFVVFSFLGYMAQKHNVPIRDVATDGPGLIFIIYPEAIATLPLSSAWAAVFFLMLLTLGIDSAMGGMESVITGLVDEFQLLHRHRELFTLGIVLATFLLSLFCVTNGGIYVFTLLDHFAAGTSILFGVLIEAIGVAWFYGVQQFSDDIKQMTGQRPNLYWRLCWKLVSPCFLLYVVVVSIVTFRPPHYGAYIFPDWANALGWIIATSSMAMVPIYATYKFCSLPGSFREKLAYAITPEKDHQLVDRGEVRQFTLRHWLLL
T4 sequence (H0W1Z3 1-590): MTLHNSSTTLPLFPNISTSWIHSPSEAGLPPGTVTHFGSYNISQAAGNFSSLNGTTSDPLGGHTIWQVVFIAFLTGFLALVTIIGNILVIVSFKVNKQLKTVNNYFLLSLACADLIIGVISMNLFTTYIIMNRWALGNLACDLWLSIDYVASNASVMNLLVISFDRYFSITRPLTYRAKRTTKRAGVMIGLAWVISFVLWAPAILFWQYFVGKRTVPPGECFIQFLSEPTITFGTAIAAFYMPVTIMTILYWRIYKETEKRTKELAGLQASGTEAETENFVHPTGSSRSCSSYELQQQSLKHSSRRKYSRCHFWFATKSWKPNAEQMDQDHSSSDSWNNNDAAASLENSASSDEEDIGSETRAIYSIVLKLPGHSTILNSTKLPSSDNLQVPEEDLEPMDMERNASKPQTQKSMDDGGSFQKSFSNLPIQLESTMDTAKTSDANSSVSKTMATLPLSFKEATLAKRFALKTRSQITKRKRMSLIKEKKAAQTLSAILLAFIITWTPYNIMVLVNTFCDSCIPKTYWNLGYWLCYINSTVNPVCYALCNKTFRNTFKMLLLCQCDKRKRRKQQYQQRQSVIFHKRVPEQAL
T5 sequence (P23975 whole entry): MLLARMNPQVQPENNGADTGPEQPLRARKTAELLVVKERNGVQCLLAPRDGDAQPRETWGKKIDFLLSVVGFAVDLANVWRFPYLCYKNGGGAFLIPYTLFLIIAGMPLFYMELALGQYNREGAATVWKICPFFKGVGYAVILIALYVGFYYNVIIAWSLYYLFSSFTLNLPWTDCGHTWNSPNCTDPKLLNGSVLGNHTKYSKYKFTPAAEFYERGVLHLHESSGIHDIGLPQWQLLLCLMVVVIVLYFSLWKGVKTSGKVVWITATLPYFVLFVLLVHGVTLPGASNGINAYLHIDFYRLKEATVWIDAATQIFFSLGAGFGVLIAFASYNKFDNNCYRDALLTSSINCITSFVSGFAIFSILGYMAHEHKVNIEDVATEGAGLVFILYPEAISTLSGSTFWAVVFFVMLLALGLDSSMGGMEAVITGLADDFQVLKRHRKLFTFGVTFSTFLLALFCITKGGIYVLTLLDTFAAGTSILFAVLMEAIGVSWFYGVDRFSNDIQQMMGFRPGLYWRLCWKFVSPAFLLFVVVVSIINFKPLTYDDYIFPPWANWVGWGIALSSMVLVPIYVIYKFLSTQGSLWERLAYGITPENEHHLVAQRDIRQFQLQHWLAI
5-HT1B, sequence (P28222 whole entry, species assumed): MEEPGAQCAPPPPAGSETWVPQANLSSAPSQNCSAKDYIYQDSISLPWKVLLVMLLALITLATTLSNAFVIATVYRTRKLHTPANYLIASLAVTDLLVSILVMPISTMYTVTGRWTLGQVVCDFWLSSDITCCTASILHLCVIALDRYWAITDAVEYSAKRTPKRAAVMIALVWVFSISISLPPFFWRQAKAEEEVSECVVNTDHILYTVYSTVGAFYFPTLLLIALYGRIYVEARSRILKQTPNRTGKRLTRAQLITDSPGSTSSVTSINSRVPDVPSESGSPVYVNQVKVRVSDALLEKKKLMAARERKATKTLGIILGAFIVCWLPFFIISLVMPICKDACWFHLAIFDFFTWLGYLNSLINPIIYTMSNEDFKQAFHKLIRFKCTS
B2, sequence (P30411 whole entry): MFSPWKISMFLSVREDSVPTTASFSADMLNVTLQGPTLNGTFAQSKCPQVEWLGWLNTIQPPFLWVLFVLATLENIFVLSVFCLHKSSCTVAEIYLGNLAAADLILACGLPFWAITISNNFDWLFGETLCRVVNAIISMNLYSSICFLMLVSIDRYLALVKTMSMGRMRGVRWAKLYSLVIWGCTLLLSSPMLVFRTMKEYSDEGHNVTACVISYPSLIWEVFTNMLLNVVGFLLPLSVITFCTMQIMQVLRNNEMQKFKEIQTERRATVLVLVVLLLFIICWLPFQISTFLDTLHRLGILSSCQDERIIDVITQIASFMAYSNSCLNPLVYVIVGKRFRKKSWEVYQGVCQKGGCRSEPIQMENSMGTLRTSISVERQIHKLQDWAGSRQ
T6 sequence (Q01959 whole entry): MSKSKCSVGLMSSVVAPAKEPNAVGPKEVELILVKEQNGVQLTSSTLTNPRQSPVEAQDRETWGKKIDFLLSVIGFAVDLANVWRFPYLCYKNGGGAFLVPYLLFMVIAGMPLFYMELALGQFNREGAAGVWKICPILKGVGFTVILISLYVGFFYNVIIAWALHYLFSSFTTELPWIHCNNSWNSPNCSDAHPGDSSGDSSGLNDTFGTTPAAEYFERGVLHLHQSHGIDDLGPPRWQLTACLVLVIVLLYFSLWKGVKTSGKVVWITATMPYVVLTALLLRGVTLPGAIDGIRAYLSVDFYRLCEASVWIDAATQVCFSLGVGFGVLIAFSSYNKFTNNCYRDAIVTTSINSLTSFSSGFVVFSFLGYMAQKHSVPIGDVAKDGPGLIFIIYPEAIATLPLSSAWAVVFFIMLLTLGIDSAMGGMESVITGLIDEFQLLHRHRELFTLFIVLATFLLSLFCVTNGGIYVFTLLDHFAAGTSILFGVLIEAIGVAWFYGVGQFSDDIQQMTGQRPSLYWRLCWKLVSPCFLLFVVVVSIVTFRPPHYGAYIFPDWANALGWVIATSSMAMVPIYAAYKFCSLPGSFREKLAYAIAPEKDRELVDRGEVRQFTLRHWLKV
H2, sequence (P25021 whole entry): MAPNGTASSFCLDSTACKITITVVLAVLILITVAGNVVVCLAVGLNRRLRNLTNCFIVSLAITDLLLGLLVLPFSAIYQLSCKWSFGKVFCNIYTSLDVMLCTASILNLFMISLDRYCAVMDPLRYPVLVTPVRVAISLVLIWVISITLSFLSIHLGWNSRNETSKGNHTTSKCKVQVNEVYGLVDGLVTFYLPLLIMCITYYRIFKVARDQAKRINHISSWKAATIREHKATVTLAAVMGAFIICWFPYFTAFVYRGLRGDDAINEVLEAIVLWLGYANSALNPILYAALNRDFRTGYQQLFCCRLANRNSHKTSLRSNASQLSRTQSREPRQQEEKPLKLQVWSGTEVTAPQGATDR

Compound: CNCCCN1c2ccccc2CCc2ccccc21 [Desipramine]
- Ki (M5; read-out: Ki, M5): 470 nM
- Ki (5-HT1B): 2700 nM
- Ki [1]: 310 nM
- Ki (Na^+ Channel Site 2): 910 nM

Compound: CN(C)CCCC1(c2ccc(F)cc2)OCc2cc(C#N)ccc21 (stereo not shown) [Citalopram]
- IC50 [2]: 7900 nM
- Ki (B2): > 100000 nM
- Ki (M5; read-out: Ki, M5): 29000 nM
- Ki (5-HT1A): 15000 nM

Compound: CN1CC[C@]23c4c5ccc(O)c4O[C@H]2[C@@H](O)C=C[C@H]3[C@H]1C5 [Morphine, reference compound]
- NUMBER OF FLINCHES (20 to 35 min after formalin), mean ± s.e.m. (rats [3]; [9]): 0.0 ± 0.0
- NUMBER OF FLINCHES, % change from control (rats [3]; [9]): −100%
- Number of Flinches, Acute Phase (Mean ± SEM) (rats [4]; 100 mg/kg SC): 36 ± 9
- Number of Flinches, Late Phase (Mean ± SEM) (rats [4]; 100 mg/kg SC): 32 ± 13

Compound: C[N+]1(C)CCC(OC(=O)C(c2ccccc2)c2ccccc2)CC1.[I-] [Compound 4-DAMP, 4-DAMP, reference compound]
- pA2 (M3 receptor): pA2 = 9.2
- IC50 (M3 receptor; read-out: IC50 for inhibition of carbachol-induced contraction of the Guinea Pig ileum): 33 nM

Compound: N[C@H]1CC[C@H](c2ccc(Cl)c(Cl)c2)c2ccccc21 [Compound Q, (1S,4R)-trans 4-(3,4-dichlorophenyl)-1,2,3,4-tetrahydro-1-napthalenamine]
- IC50 [2]: 35 nM
- IC50 [5]: 16.5 nM
- IC50 [6]: 14.4 nM
- IC50 (Dopamine (DA) uptake): 19 nM

Compound: N[C@@H]1CC[C@@H](c2ccc(Cl)c(Cl)c2)c2ccccc21 (racemic) [1:1 mixture of Compounds P & Q, trans-4-(3,4-dichlorophenyl)-1,2,3,4-tetrahydro-1-napthalenamine]
- IC50 [2]: 8.8 nM
- IC50 (Dopamine (DA) uptake): 7.1 nM

Compound: CNCC[C@H](Oc1cccc2ccccc12)c1cccs1 [Duloxetine, reference compound]
- Mechanical Allodynia, Paw Withdrawal Threshold (Mean ± SEM) (Rat SNL Model [7]; 30 mg/kg PO, 0 h (Baseline)): 2.6 ± 0.2 g
- Mechanical Allodynia, Paw Withdrawal Threshold (Mean ± SEM) (Rat SNL Model [7]; 30 mg/kg PO, 1 h): 7.0 ± 0.5 g
- Mechanical Allodynia, Paw Withdrawal Threshold (Mean ± SEM) (Rat SNL Model [7]; 30 mg/kg PO, 2 h): 7.9 ± 0.6 g
- Mechanical Allodynia, Paw Withdrawal Threshold (Mean ± SEM) (Rat SNL Model [7]; 30 mg/kg PO, 4 h): 8.1 ± 0.6 g
- Mechanical Hyperalgesia, Paw Pressure Threshold (Mean ± SEM) (Rat SNL Model [8]; 30 mg/kg PO, 0 h (Baseline)): 153 ± 9 g
- Mechanical Hyperalgesia, Paw Pressure Threshold (Mean ± SEM) (Rat SNL Model [8]; 30 mg/kg PO, 1 h): 306 ± 30 g
- Mechanical Hyperalgesia, Paw Pressure Threshold (Mean ± SEM) (Rat SNL Model [8]; 30 mg/kg PO, 2 h): 345 ± 22 g
- Mechanical Hyperalgesia, Paw Pressure Threshold (Mean ± SEM) (Rat SNL Model [8]; 30 mg/kg PO, 4 h): 330 ± 25 g
- NUMBER OF FLINCHES (20 to 35 min after formalin), mean ± s.e.m. (rats [3]; [10]): 71.4 ± 17.2NS
- NUMBER OF FLINCHES, % change from control (rats [3]; [10]): −20%
- Number of Flinches, Acute Phase (Mean ± SEM) (rats [4]; 30 mg/kg PO): 168 ± 24
- Number of Flinches, Late Phase (Mean ± SEM) (rats [4]; 30 mg/kg PO): 803 ± 112

Compound: COc1ccc(C(CN(C)C)C2(O)CCCCC2)cc1 (stereo not shown) [Venlafaxine]
- Ki (H2): 89000 nM
- Ki (M5): > 100000 nM
- Ki [1]: 4800 nM
- Ki (Na^+ Channel Site 2): 12000 nM

Compound: NCC1(CC(=O)O)CCCCC1 [Gabapentin, reference compound]
- Mechanical Allodynia, Paw Withdrawal Threshold (Mean ± SEM) (Rat SNL Model [7]; 100 mg/kg PO, 0 h (Baseline)): 2.7 ± 0.1 g
- Mechanical Allodynia, Paw Withdrawal Threshold (Mean ± SEM) (Rat SNL Model [7]; 100 mg/kg PO, 1 h): 6.6 ± 0.4 g
- Mechanical Allodynia, Paw Withdrawal Threshold (Mean ± SEM) (Rat SNL Model [7]; 100 mg/kg PO, 2 h): 9.8 ± 0.5 g
- Mechanical Allodynia, Paw Withdrawal Threshold (Mean ± SEM) (Rat SNL Model [7]; 100 mg/kg PO, 4 h): 6.2 ± 0.4 g
- Mechanical Hyperalgesia, Paw Pressure Threshold (Mean ± SEM) (Rat SNL Model [8]; 100 mg/kg PO, 0 h (Baseline)): 135 ± 20 g
- Mechanical Hyperalgesia, Paw Pressure Threshold (Mean ± SEM) (Rat SNL Model [8]; 100 mg/kg PO, 1 h): 219 ± 32 g
- Mechanical Hyperalgesia, Paw Pressure Threshold (Mean ± SEM) (Rat SNL Model [8]; 100 mg/kg PO, 2 h): 236 ± 29 g
- Mechanical Hyperalgesia, Paw Pressure Threshold (Mean ± SEM) (Rat SNL Model [8]; 100 mg/kg PO, 4 h): 255 ± 29 g

Compound: CC(NC(C)(C)C)C(=O)c1cccc(Cl)c1 (stereo not shown) [Bupropion, reference compound]
- IC50 [2]: 611 nM
- IC50 (Dopamine (DA) uptake): 294 nM
